The record followed here is patent publication US10517910B2 (priority 2015, dated 2019).

For the assay, the system named is HuH-7 cells infected with JX-594 virus. Format: cell-based.

Counter-ions that a name gives are not always drawn.

Turning to `COc1cccc2c1C(=O)c1c(O)c3c(c(O)c1C2=O)C[C@@](O)(C(=O)CO)C[C@@H]3O[C@H]1C[C@H](N)[C@H](O)[C@H](C)O1` [Adriamicyn, Doxorubicin hydrochloride], the “JX-594 viral replication in vitro” value is reported as “decrease” and the viral output entry is recorded as “decreased”.
